Test results: patent US20260306421A1, “SYSTEMS AND METHODS FOR TRANSDERMAN PATCH DELIVERY” (VITAMAX PATCH WHOLESALER LLC, priority 2022, published 2026)

Assays:
[1] = Iron complex reservoir solvent solubility screening; assay type: physicochemical; details: Span 80, SDS, Tween 80 and Kolliphore EL
[2] = Solubility of iron chloride hexahydrate and iron complexes (visual / assayed); assay type: physicochemical; details: visual (*)
Protocol: Due to the high number of test samples (6 complexes plus the starting material, iron chloride hexahydrate) a visual solubility screen was used to screen the solubility in a range of solvents. […] Quantitative determination was performed by either incubating the complex in excess in the solvent using a shaking 37° C. water bath for 48 h or sonicating it for 2 hours at 40° C. or leaving overnight on a 50° C. hot plate. Once incubation period was completed, the exact solubility in a particular solvent was assayed (using the iron assay) after centrifugation (i.e. assay iron content in the supernatant using the Ferrozine® assay).

[3] = Iron complex adhesive compatibility and loading screen; assay type: physicochemical
Protocol: Pre-formulation studies were performed to determine the compatibility of the iron complexes with a range of transdermal patch adhesives (Table 15).
The compatibility of the complexes with the patch adhesives was assessed by mixing and visually checking the clarity of the mixture.
In the adhesives that were computable with the iron complexes the maximum drug loading of the complexes in the adhesive following solvent evaporation was determined. This was achieved by mixing the drug, adhesive and co-solvents until a clear solution was obtained at different drug:adhesive ratios and placing few drops of the mixture onto the patch backing sheet, leaving it to dry for 3-4 h, and examining the formed film on the surface of the backings for evidence of drug crystals.
Following complete drying of the solvents, the adhesive layer was covered by a release liner, compressed, and then cut using 34 mm circular manual die cutter (FIG. 23).

[4] = Zinc ethyl maltol adhesive suitability (solubility/compatibility) screening; assay type: physicochemical
Protocol: Pre-formulation studies were performed to determine the compatibility of zinc ethyl maltol with a variety of adhesives that could be used to manufacture a transdermal patch (Table 2). The compatibility of the zinc complexes with the patch excipients was evaluated by examining the clarity of the mixture upon mixing. […] Following patch optimisation, the optimised drug-adhesive solutions were cast in 10×10 cm^2 trays made of the patch backing (3M™ Scotchpak™ Polyester Backing Film Laminate 9730, 3M, Germany). An adequate volume of the adhesive was applied to achieve a target coating level of 8 mg/cm^2 (equivalent to 80 g/m^2). Following complete drying of the solvents, the adhesive layer was covered by an M3 Release liner (SCOTCHPAK 9755), compressed, and then cut using a 34 mm circular manual die cutter (SCP Super Cutting Press).

[5] = Franz cell porcine skin permeation and deposition of zinc from solutions; assay type: in vitro ADME; details: solution in PEG (6 mg/mL)
[6] = Solubility of zinc chloride and zinc complexes (visual / HPLC); assay type: physicochemical
Protocol: Accurate measurement of the solubility was then repeated for some of the solvent systems by HPLC. In the HPLC solubility studies, an excess of the test agents was loaded into 2 mL of each test solvent. The solutions were left stirring overnight at 32° C. […] The drug suspensions were then centrifuged, the supernatant diluted, and each sample concentration was measured using HPLC.

[7] = Franz cell porcine skin permeation and deposition of zinc from solutions; assay type: in vitro ADME; set-up: elemental zinc skin deposition: unit not given here
Protocol: Porcine skin permeation studies were performed to compare the permeation of zinc chloride and the zinc ethyl maltol complex. The permeation of zinc chloride vs zinc ethyl maltol from PG saturated solutions (zinc chloride and zinc ethyl maltol solutions in PG was 2.45 and 2.10 mg/mL, respectively) and permeation of zinc chloride from PG statured solution vs zinc ethyl maltol from PEG400 saturated solutions were investigated (zinc ethyl maltol in PEG400 100 mg/mL). In addition, the permeation of the zinc ethyl complex from PEG400 saturated solution and PEG400:PEG1000 (8:2% w/w) was compared. For the PEG mixture, the zinc ethyl maltol donor was prepared by dissolving 60 mg of the complex in 3 mL of methanol and 1 mL of 80% w/w PEG400:20% w/w PEG 1000 then added. The solution was left overnight to allow the evaporation of methanol.
Permeation studies were conducted using previously validated Franz cell method based on the principles of the FDA, SUPAC-SS guidelines [FDA (CDER), 1997, Guidance for industry—SUPAC-SS Non-sterile Semisolid Dosage Form, Scale-up and post-approval changes: chemistry, manufacturing, and controls; in vitro release testing and in vivo bioequivalence documentation](FIG. 4). On the day of the experiment, the porcine skin was defrosted and either prepared as full-thickness sheets but removing the fat or dermatome to a 1 mm thickness (Nouvag, AG). The tissue was cut into 34 mm circles to allow an exposure area of 2.19±0.21 cm^2 and positioned between donor and receiver compartments of Franz diffusion cells. Each piece of skin was sealed between the two compartments using parafilm (Bemis Company, Neenah, WI). A 12 mm magnetic stir bar was placed into the receiver compartment of each Franz cell. The receiver compartment was loaded with 50 mM phosphate-buffered saline (pH 7.4). The cell sealing was verified by Franz cell inversion (6 times) and monitoring solvent back diffusion. The temperature of the Franz diffusion was set at 37° C. in a water bath to reach a skin temperature of 32° C. After 1 h equilibration at 37° C. in the water bath, 1 mL of receiver fluid was withdrawn (time point=0 min), and a fresh receiver solution was replaced into the cell to keep the volume consistent. Each formulation (1 mL) was applied in the donor compartment that was then covered with parafilm to avoid evaporation. After 24 h, the receiver fluid was collected and analysed by HPLC.
At the end of the permeation studies, the Franz cells were dismantled. The donor solutions were collected from each cell and transferred into 5-mL glass bottles containing 2 mL of PDCA as extraction fluid. This step was followed by wiping the skin surface and the donor compartment with two wet (wetted with extraction fluid) and then two dry cotton buds. The skin's permeation area was then cut into small pieces by scalpels and placed into a 5 mL glass bottle containing 4 mL of extraction fluid. All skin samples were kept at the bench with extraction fluid for 1 hour. This step was followed by separating each vial's content (cut skin and extraction fluid) into 2 mL Eppendorf tubes that were then loaded in TissuLyser machine for 20 minutes. Samples were then centrifuged for 15 minutes at 13,000 rpm. The content of each Eppendorf tube was filtered using 0.45 µm syringe filters, collected, and analysed by HPLC.

[8] = Zinc ethyl maltol reservoir co-solvent solubility screening; assay type: physicochemical; details: for Solubility in PEG400:PEG1000: 3 mL methanol
Protocol: Pre-formulation studies were completed to optimise the solubility of zinc ethyl maltol using a variety of co-solvents that could be applied to the skin, such as Transcutol and ethanol. Polymers such as PEG 1000, Natrsol M250, and PVP were used to aid the solubilisation process. The compatibility of the complex with the solvents was evaluated by examining the clarity of the mixture. Following the optimisation of the complex solubility, the reservoir patch was developed using the backing layer, drug in solution, and liner release layer. The backing used was 3M™ Scotchpak™ Polyester Backing Film Laminate 9730. Different liner release membranes were investigated including, regenerated cellulose (12-14 k molecular weight cut-off Medical International UK), nylon (0.20 μm, Whatman, UK), and CoTran 9728 (3M, Germany). A 200 μL aliquot of zinc ethyl maltol complex in solution was applied on the liner release membrane, then covered by the backing layer and all layers thermally sealed (HeatPress machine HP230B).
The solution left to evaporate overnight to form a supersaturated solution (Table 4). This solution was then loaded into the reservoir patch.

Cc1occc(=O)c1[O-].Cc1occc(=O)c1[O-].Cc1occc(=O)c1[O-].[Fe+3] [Iron maltol made at pH 7.4, iron maltol]
visual solubility [1]: ≤ 32000 µg/mL
Solubility of complex (visual) ([2]; PEG400): <20 mg/mg/mL
Solubility of complex (visual) ([2]; PG): ≥20 mg/mg/mL
Solubility of complex (visual) ([2]; Transcutul): <20 mg/mg/mL
Solubility in DURO-TAK 9301 patch ([3]; drug loading 4%, 2 mg PG): Clear
Solubility in DURO-TAK 9301 patch ([3]; drug loading 4%, no permeation enhancer): Clear
Solubility in DURO-TAK 9301 patch ([3]; drug loading 6%, no permeation enhancer): Precipitated
Solubility in DURO-TAK 9301 patch ([3]; drug loading 7%, 8 mg Maltol): Precipitated
Solubility in DURO-TAK 9301 patch ([3]; drug loading 7.5%, 4 mg PG): Precipitated
Solubility in DURO-TAK 9301 patch ([3]; drug loading 8%, no permeation enhancer): Precipitated
Solubility in DURO-TAK 9301 patch ([3]; drug loading 10%, 5.5 mg PG): Precipitated
Solubility in DURO-TAK 9301 patch ([3]; drug loading 10%, 5.5 mg Transcutol): Precipitated
Solubility in DURO-TAK 9301 patch ([3]; drug loading 10%, no permeation enhancer): Precipitated

CCc1occc(=O)c1[O][Zn][O]c1c(CC)occc1=O [Zinc Ethyl Maltol, zinc ethyl maltol]
Solubility in DURO-TAK 9301 ([4]; drug loading 5%, no Transcutol): Not Soluble
Solubility in DURO-TAK 9301 ([4]; drug loading 7.4%, Transcutol 12.5 mg): Soluble
Solubility in DURO-TAK 9301 ([4]; drug loading 7.5%, no Transcutol): Not Soluble
Solubility in DURO-TAK 9301 ([4]; drug loading 10%, no Transcutol): Not Soluble
Solubility in DURO-TAK 9301 ([4]; drug loading […], no Transcutol): Not Soluble
permeation of elemental zinc [5]: 173.6 μg/cm^2
Elemental zinc solubility evaluated by HPLC ([6]; solvent PEG400): 6600 µg/mL
Elemental zinc solubility evaluated by HPLC ([6]; solvent PG): 2100 µg/mL
Elemental zinc solubility evaluated by HPLC ([6]; solvent Transcutol): 6000 µg/mL
transdermal permeation of elemental zinc ([7]; 1 mL PG solution, 24 h): 4.85 µg/cm^2
permeation of elemental zinc ([7]; solution in PG ([…])): 41 μg/cm^2
daily dose delivered by the solution ([7]; solution, extrapolated): approximately 2 mg
elemental zinc passed through the skin ([7]; supersaturated solution (conclusions)): 237.93 μg/cm^2
elemental zinc permeated through the skin ([7]; supersaturated solution in PEG400:PEG1000 (8% w/w:2% w/w), 24 h): 238 µg/cm^2
elemental zinc skin deposition ([7]; vehicle PEG400, 24 h): 44.84
transdermal permeation of elemental zinc ([7]; vehicle PEG400, 24 h): 174 µg/cm^2
transdermal permeation compared to zinc chloride ([7]; zinc ethyl maltol in PEG400 vs zinc chloride in PG): 4.8 fold
Solubility in PEG400:PEG1000 ([8]; 60 mg, 1 mL PEG400:PEG1000 (2% w/w:8% w/w)): Not soluble
Solubility in PEG400:PEG1000 ([8]; 60 mg, 1 mL PEG400:PEG1000 (6% w/w:4% w/w)): Not soluble
Solubility in PEG400:PEG1000 ([8]; 60 mg, 1 mL PEG400:PEG1000 (8% w/w:2% w/w)): Soluble
Solubility in PEG400:PEG1000 ([8]; 80 mg, 1 mL PEG400:PEG1000 (6% w/w:4% w/w)): Not soluble
Solubility in PEG400:PEG1000 ([8]; 80 mg, 1 mL PEG400:PEG1000 (8% w/w:2% w/w)): Not soluble
Solubility in PEG400:PEG1000 ([8]; 100 mg, 1 mL PEG400:PEG1000 (6% w/w:4% w/w)): Not soluble
Solubility in PEG400:PEG1000 ([8]; 100 mg, 1 mL PEG400:PEG1000 (8% w/w:2% w/w)): Not soluble
Solubility in PEG400:PEG1000 ([8]; 120 mg, 1 mL PEG400:PEG1000 (6% w/w:4% w/w)): Not soluble
Solubility in PEG400:PEG1000 ([8]; 120 mg, 1 mL PEG400:PEG1000 (8% w/w:2% w/w)): Not soluble
maximum solubility of zinc ethyl maltol complex ([8]; PEG400): 30000 µg/mL
elemental zinc achieved in supersaturated solution ([8]; supersaturated solution based on PEG400/PG6000): 28.8 mg/mL
